Consider 7 compounds from paper PMC4156305, “Structure Driven Design of Novel Human Ether-A-Go-Go-Related-Gene Channel (hERG1) Activators” (PLoS ONE, 2014).

Data set [1] deals with fetal mouse ventricular myocytes. Put plainly: Action potential recordings in neonatal (day 1) / fetal mouse ventricular myocytes. The data set is classed as cell-based. Conditions: 20 µM. How it is done:
Action potentials were recorded from neonatal (day 1) mouse ventricular myocytes as previously reported. Although IKr has little physiologic importance to the action potential of the adult rodent heart, we previously reported that IKr is the dominant repolarizing current in day 1 neonatal myocytes, with little or no IKs. Thus, these neonatal cells are well suited to assess the physiologic relevance of blockade of IKr to the action potential characteristics. In contrast, to address the possibility that compounds inadvertently interact with other channels, action potentials were recorded from adult cardiac myocytes. Myocytes on glass coverslips were placed in a chamber mounted on a modified stage of an inverted microscope.

For data set [2], the target named is T1, hERG1 E544L (Homo sapiens, UniProt Q12809, E544L).
T1 construct: expressed in transfected cells; host or cells: HEK 293
As to the kind of experiment: Whole cell patch-clamp of hERG1 E544L mutant. In kind it is cell-based. Conditions: 10 µM. How it is done:
(§1) Transfected HEK cells on glass cover slips were placed in a chamber mounted on a modified stage of an inverted microscope. The chamber was superfused at a rate of 2 mL/min with a normal external solution. The extracellular solution contained (in mM) NaCl 140, KCl 5.4, CaCl2 1, MgCl2 1, HEPES 5, glucose 5.5, pH 7.4, with NaOH. Micropipettes were pulled from borosilicate glass capillary tubes on a programmable horizontal puller (Sutter Instruments, Novato, CA). Standard patch-clamp methods were used to measure the whole cell currents of hERG1 mutants expressed in HEK 293 cells using the AXOPATCH 200B amplifier (Axon Instruments). Unless otherwise indicated, tail currents were recorded when the voltage was returned to −50 mV from +50 mV. Further details on electrophysiological methods are collected in Methods S1.
(§2) Electrophysiology Protocol:
(§3) The pipette solution contained the following (at mM concentration): KCl 10, K-aspartate 110, MgCl2 5, Na2ATP 5, EGTA 10, HEPES 5, and CaCl2 1. The solution was adjusted to pH 7.2 with KOH. The extracellular solution contained the following (at mM concentration): NaCl 140, KCl 5.4, CaCl2 1, MgCl2 1, HEPES 5, and glucose 5.5. The solution was adjusted to pH 7.4 with NaOH. For IKr measurements, the whole cell configuration of the patch clamp method was used. The series resistance was less than 7
(§4) MΩ. The data were sampled at 1 kHz. The holding potential was -80 mV. The activation of hERG tail currents was induced by depolarization to a range of potentials from +50 to -100 mV in 10 mV steps for 1 second. This was followed by repolarization to -100 mV for 1 second to record the tail currents.
(§5) -100 mV, a -120 mV 1 second pre-pulse was applied to completely close the hERG channels before subsequent depolarization. All of the tail currents reported in this manuscript represent dofetilide-sensitive currents. The inactivation of hERG was measured by a previously reported triple-pulse protocol5, 6. The holding potential was -80 mV. The hERG channel was first depolarized to +50 mV for 1 second. Recovery from inactivation was achieved using a short pulse (a 10 ms hyperpolarization) to -120 mV, followed by the application of test pulses from -100 to 0 mV for 1 second in 10 mV steps.
(§6) A voltage of -100 mV was selected because it was on the flat part of the inactivation-voltage relationship. The methods employed are identical to ones previously reported. […]

In data set [3] the target is T2, hERG1 (Homo sapiens, UniProt Q12809).
T2 construct: expressed in transfected cells; host or cells: HEK 293
As to the kind of experiment: Whole cell patch-clamp of hERG1 currents in transfected HEK 293 cells. In kind it is cell-based. Further details: Inactivation ΔV0.3: unit not given here. Conditions: for Deactivation Δλ/λcon: deactivation time constant relative to baseline; for Activation V1/2 (mV): shift in voltage-dependence of activation; for Inactivation ΔV0.3: shift in voltage-dependence of inactivation; for Amplitude I/Icon: tail current relative to baseline. How it is done:
as §1, §2, §3, §4, §5, §6

The target of data set [4] is T1, hERG1 E544L. Conditions: ref [7]–[12]; cited from earlier work.
The target of data set [5] is T2, hERG1. Conditions: cited from earlier work.
[6] abbreviates: Conc. 2 µM, listed as MC-II-159c.

“Also recorded” adds a separate entry of the source.

Take `C[C@H](NCc1ccc(Br)cc1)C(=O)NC(=O)Nc1cc(C(F)(F)F)ccc1O` [Compound 4]: the “upstroke of the action potential, overshoot potential and excitability threshold” value in data set [1] is “affected the upstroke of the action potential, the overshoot potential and the excitability threshold”. In addition, the “response in amplitude of the tail current in E544L versus WT” value at hERG1 E544L [2] is on record as “markedly diminished”. On hERG1 E544L [2] (listed as MC-II-159c), the “pharmacologic responses (shift in voltage-dependence of activation, slowing of deactivation) in E544L versus WT” value is “significantly and substantially less pharmacologic responses; also recorded: significantly and substantially reduced”. Moreover, on hERG1 [3], the “lower drug concentration at which effects on deactivation were still manifest” value was approximately 2 µM. For the same compound, the figures for the “Deactivation Δλ/λcon” value at hERG1 [3] (Conc. 2 µM), on hERG1 [3] (setting [6]) and at hERG1 [3] (Conc. 20 µM) were 0.25±0.02, “significantly prolonged deactivation” and 3.1±1.6, respectively. The “Activation V1/2 (mV)” value is listed as −5±2 mV on hERG1 [3] (Conc. 2 µM) and −33±14 mV at hERG1 [3] (Conc. 20 µM). The entries for the “Inactivation ΔV0.3” value on hERG1 [3] (Conc. 2 µM), on hERG1 [3] (Conc. 10 µM) and on hERG1 [3] (Conc. 20 µM) were −0.5±0.5, “shifts voltage dependence to hyperpolarized potentials” and −4.5±1.5, respectively. The “Amplitude I/Icon” value at hERG1 [3] (Conc. 2 µM) is 0.76±0.14; at hERG1 [3] (setting [6]), 0.76; at hERG1 [3] (Conc. 20 µM) it was 0.6±0.07; on hERG1 [3] (Conc. 20 µM, listed as MC-II-159c), 0.6.

As to `COCOc1ccc(C(F)(F)F)cc1N` [Compound 20], on hERG1 [3] (Conc. 5 µM), the “Deactivation Δλ/λcon” value is listed as 0.03±0.01, the “Activation V1/2 (mV)” value is −2.5±0.5 mV and the “Inactivation ΔV0.3” value is 0±1. At hERG1 [3] (Conc. 100 µM), the “Deactivation Δλ/λcon” value is −0.06±0.2, the “Activation V1/2 (mV)” value was −3.3±1.3 mV, the “Inactivation ΔV0.3” value is on record as −1±0 and the “Amplitude I/Icon” value is on record as 0.9±0.04.

As for `COCOc1ccc(C(F)(F)F)cc1NC(N)=O` [Compound 21], on hERG1 [3] (Conc. 50 µM), the “Deactivation Δλ/λcon” value is listed as 0.02±0.1, the “Activation V1/2 (mV)” value is listed as −1.3±2.4 mV, the “Inactivation ΔV0.3” value worked out at 0.7±3.7 and the “Amplitude I/Icon” value is reported as 0.9±0.04.

Consider `COCOc1ccc(C(F)(F)F)cc1NC(=O)Oc1ccccc1` [Compound 22], for which, on hERG1 [3] (Conc. 50 µM), the “Deactivation Δλ/λcon” value is −0.2±0.09, the “Activation V1/2 (mV)” value is −1.7±2.3 mV, the “Inactivation ΔV0.3” value worked out at 0±0 and the “Amplitude I/Icon” value came out at 0.9±0.04.

Regarding `O=C1NC(=O)c2cc(C(F)(F)F)ccc21` [Compound 23], at hERG1 [3] (Conc. 50 µM), the “Deactivation Δλ/λcon” value came out at 0.2±0.1, the “Activation V1/2 (mV)” value is on record as −2.3±1.3 mV, the “Inactivation ΔV0.3” value was −2±1.2 and the “Amplitude I/Icon” value was determined as 1.0±0.01.

Regarding `O=C(Nc1ccccc1)C1C(=O)Nc2ccccc21` (centres unmarked) [Compound 24], on hERG1 [3] (Conc. 50 µM), the “Deactivation Δλ/λcon” value worked out at 0.2±0.2, the “Activation V1/2 (mV)” value was −2.3±0.9 mV, the “Inactivation ΔV0.3” value worked out at 8±0 and the “Amplitude I/Icon” value is given as 0.8±0.03.

In the case of `O=C(Nc1cc(C(F)(F)F)ccc1O)Nc1cc(C(F)(F)F)ccc1O` [NS1643], at hERG1 E544L [4], the “NS1643-induced increase in tail current amplitude” value is 398%, the “NS1643-induced shift in the V1/2 of activation” value is reported as −24±3 mV and the “NS1643-induced slowing of deactivation” value was 3.5 fold. Further, at hERG1 [5] (WT, ref [7]–[12]), the “NS1643-induced increase in tail current amplitude” value was 13% and the “NS1643-induced slowing of deactivation” value was 1.9 fold. On hERG1 [5] (ref [7]), the “concentration increasing current density / tail current magnitude” value is given as 10 µM and the “concentration producing channel blockade” value is given as 30 µM. For the same compound, on hERG1 [5] (ref [13]), the “concentration that increases the magnitude of the tail current” value is 10 µM and the “concentrations that pharmacologically block the channel” value is 20–30 µM. Further, the “NS1643-induced shift in the V1/2 of activation” value at hERG1 [5] (wild type (WT), ref [7]–[12]) is −18±3 mV. For the same compound, on hERG1 E544L [2], the “pharmacologic responses (shift in voltage-dependence of activation, slowing of deactivation) in E544L versus WT” value is on record as “exaggerated pharmacologic responses; also recorded: exaggerated response” and the “response in amplitude of the tail current in E544L versus WT” value is recorded as “exaggerated”. Moreover, on hERG1 [3] (Conc. 10 µM), the “Deactivation Δλ/λcon” value was found to be 1±0.4, the “Activation V1/2 (mV)” value is on record as −21±2.3 mV, the “Inactivation ΔV0.3” value is listed as “+6±0.6” and the “Amplitude I/Icon” value is listed as 1±0.04. This compound also displayed a safety factor at hERG1 [3] (original safety factor, blockade versus activation) of 3 fold.
